{
  "source": "patent US20230172906A1",
  "about": "“METHOD TO TREAT VIRAL INFECTION INDUCED BY A CORONAVIRUS” (priority 2020, published 2023)",
  "key": {"HEK293 cells": {"test_system": "HEK293 cells", "conditions": "melatonin at 10 and 100 μM, FIG. 1B"}, "RBD/ACE2 interaction": {"target": "T1, RBD/ACE2 interaction (Homo sapiens, UniProt Q9BYF1)", "T1 construct": "expressed in transfected cells; host or cells: HEK293", "T1 sequence (Q9BYF1 18-805)": "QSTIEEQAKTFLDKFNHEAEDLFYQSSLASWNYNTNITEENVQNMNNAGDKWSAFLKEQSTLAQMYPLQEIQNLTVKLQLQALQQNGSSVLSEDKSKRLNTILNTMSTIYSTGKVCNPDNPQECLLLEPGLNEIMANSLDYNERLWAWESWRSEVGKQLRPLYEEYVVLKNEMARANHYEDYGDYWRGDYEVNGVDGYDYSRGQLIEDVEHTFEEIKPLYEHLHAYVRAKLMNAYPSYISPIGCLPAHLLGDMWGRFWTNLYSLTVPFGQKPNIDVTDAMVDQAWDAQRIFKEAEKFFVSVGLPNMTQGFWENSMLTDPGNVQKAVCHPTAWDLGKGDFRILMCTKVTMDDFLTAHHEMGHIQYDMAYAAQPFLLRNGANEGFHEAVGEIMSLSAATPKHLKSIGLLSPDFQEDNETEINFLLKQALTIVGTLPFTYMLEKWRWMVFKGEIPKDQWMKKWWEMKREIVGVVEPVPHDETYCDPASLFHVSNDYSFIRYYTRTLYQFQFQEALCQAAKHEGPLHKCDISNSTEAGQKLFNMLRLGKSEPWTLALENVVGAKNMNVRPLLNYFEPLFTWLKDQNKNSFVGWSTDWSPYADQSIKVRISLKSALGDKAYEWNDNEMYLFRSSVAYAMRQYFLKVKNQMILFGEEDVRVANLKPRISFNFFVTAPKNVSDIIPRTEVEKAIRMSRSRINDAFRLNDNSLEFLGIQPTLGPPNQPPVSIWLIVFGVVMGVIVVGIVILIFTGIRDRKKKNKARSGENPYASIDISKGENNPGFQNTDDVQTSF", "format": "binding"}, "[1]": {"test_system": "SARS-CoV-2 pseudovirus entry into HEK293 cells expressing human ACE2", "format": "cell-based"}},
  "data": [
    {"smiles": "COc1ccc2[nH]cc(CCNC(C)=O)c2c1", "note": "[melatonin, Melatonin]", "values": [
      {"measurement": "cell viability", "setting": "HEK293 cells", "result": "without affecting cell viability"},
      {"measurement": "binding of RBD-d2 of the SARS-CoV-2 Spike protein to Lumi4-Tb-labeled SNAP-tagged human ACE2", "setting": "RBD/ACE2 interaction", "result": "inhibits"},
      {"measurement": "infection by the SARS-CoV-2 pseudovirus", "setting": "[1]", "result": "inhibited"}
    ]}
  ]
}
